Results from paper PMC3199943, “Screening the MayBridge Rule of 3 Fragment Library for Compounds That Interact with the Trypanosoma brucei myo-Inositol-3-Phosphate Synthase and/or Show Trypanocidal Activity” (Molecular Biology International, 2011).
Like-named read-outs stand apart in the source and are kept apart here.

Assays:
A549 cells = test: Cytotoxicity against A549 cells, Alamar Blue; format: cell-based; conditions: Supplementary Table 1, compound 0.5 mM, percentage of controls (n=1); for viability at 500 µM: Homo sapiens, A549, 65 h
How it was run: (§1)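 Viability by Alamar Blue (5 h) after ~65 h drug treatment; seeding density 2 × 10^4 cells/well in DMEM supplemented with 10% FCS and 2 mM L-Glutamine.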

HeLa cells = test: cells; conditions: for viability at 500 µM / CC50: Homo sapiens, HeLa; for viability at 500 µM: 65 h; for HeLa Cells Alamar Blue: Supplementary Table 1; for CC50: read-out: HeLa ED50
How it was run: as §1

TbINO1 = target: T1, TbINO1 (Trypanosoma brucei brucei, UniProt Q5QQ46); test: biochemical; format: binding
T1 sequence (Q5QQ46 1-528): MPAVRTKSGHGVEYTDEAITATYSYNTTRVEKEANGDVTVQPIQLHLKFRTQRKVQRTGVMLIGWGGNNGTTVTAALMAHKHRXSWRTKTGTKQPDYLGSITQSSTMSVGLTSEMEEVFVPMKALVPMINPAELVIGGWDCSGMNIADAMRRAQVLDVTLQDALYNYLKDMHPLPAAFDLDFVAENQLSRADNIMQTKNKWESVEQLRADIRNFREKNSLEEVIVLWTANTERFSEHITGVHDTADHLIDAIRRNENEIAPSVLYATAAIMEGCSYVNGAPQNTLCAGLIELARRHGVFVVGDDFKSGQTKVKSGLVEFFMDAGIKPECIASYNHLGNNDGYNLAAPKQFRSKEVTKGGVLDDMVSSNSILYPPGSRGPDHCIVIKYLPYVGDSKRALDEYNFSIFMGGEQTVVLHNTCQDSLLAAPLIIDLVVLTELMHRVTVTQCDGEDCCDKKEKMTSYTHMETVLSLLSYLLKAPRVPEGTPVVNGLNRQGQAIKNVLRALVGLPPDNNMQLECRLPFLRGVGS

[1] = read-out: HeLa Cells Alamar Blue
[2] = read-out: Tb Ino1 Tm Shift [˚C]
[3] = compound 0.5 mM, percentage of controls, mean ± SD (n=3) or SE (n=2)
[4] = Supplementary Table 1, compound 1mM, mean ± SD from Boltzman curve fitting
[5] = Supplementary Table 1, compound 1mM, mean ± SD from Boltzman curve fitting, read-out: Tb Ino1 Tm Shift [˚C]
[6] = read-out: HeLa Cells Alamar Blue (% survival)

| SMILES | viability at 500 µM (A549 cells) [%] | viability at 500 µM (HeLa cells; [1]) [%] | ΔTm at 1000 µM (TbINO1; [2]) [°C] | further results |
| --- | --- | --- | --- | --- |
| c1ccc2c(c1)CCOC2 [compound 110, 3,4‐dihydro‐1H‐benzo[c]pyran] | 114 | 88.7 ± 19.2 | 0.34 ± 0.06 | – |
| C1CNCCNC1 [compound 13, 1,4‐diazepane] | 82.4 | 88.5 ± 11.1 | 0.4 ± 0.07 | – |
| CNCc1cccc(-c2cccnc2)c1 [compound 606, N‐methyl‐N‐(3‐pyridin‐3‐ylbenzyl)amine] | 69.8 | 70.8 ± 5.8 | 0.07 ± 0.08 | – |
| N#Cc1cc(N)ccc1-n1cccc1 [compound 471, 5‐amino‐2‐(1H‐pyrrol‐1‐yl)benzonitrile] | 81.4 | 89.3 ± 18.8 | 0.1 ± 0.08 | – |
| Cc1nn(C)c(C)c1CN [compound 128, (1,3,5‐trimethyl‐1H‐pyrazol‐4‐yl)methylamine] | – | – | – | A549 Cells Alamar Blue (A549 cells): 87.7 percentage of controls; HeLa Cells Alamar Blue (HeLa cells; [3]): 80.3 ± 7 percentage of controls; Tb Ino1 Tm Shift [˚C] (TbINO1; [4]): 0.22 ± 0.06 °C |
| O=C(O)c1ccc(-c2ccsc2)cc1 [compound 648, 4‐(3‐thienyl)benzoic acid] | 149 | 105 ± 8.2 | 0.25 ± 0.08 | – |
| OCc1cc2ccccc2s1 [compound 301, 1‐benzothiophen‐2‐ylmethanol] | 71 | 90.7 ± 4.5 | 0.01 ± 0.05 | – |
| O=C(O)c1cc2ccccc2cn1 [compound 555, isoquinoline‐3‐carboxylic acid hydrate] | 100 | 92.1 ± 10.1 | – | ΔTm at 1000 µM (TbINO1; [5]): 0.5 ± 0.09 °C |
| Nc1cccc(-c2ccsc2)c1 [compound 404, 3‐thien‐3‐ylaniline] | 83.3 | 89.4 ± 17.7 | 0.17 ± 0.05 | – |
| NC(=S)c1ccsc1 [compound 148, thiophene‐3‐carbothioamide] | 99.6 | 92.3 ± 7 | 0.78 ± 0.08 | – |
| COc1ncccc1N [compound 65, 2‐methoxypyridin‐3‐amine] | 75.4 | 66.6 ± 18.7 | 1.46 ± 0.07 | – |
| N#Cc1ncccc1N1CCCCC1 [compound 517, 3‐piperidin‐1‐ylpyridine‐2‐carbonitrile] | 54.7 | 51.2 ± 17.9 | 0.16 ± 0.07 | – |
| Cc1ncsc1C(=O)O [compound 145, 4‐Methyl‐thiazole‐5‐carboxylic acid] | 114 | 90.6 ± 16.1 | 0.01 ± 0.07 | – |
| Cc1cc(Cl)ccc1C(=O)O [compound 350, 4‐chloro‐2‐methylbenzoic acid] | 160 | 108 ± 9.9 | 1.05 ± 0.07 | – |
| O=C(O)c1cncc(-c2ccccc2)c1 [compound 615, 5‐phenylnicotinic acid] | 75.6 | 80.4 ± 11.7 | 1.28 ± 0.09 | – |
| COC(=O)c1ccccc1C [compound 183, methyl 2‐methylbenzoate] | 51 | 114 ± 4.3 | 0.14 ± 0.08 | – |
| Nc1cccc(CN2CCCC2)c1 [compound 415, 3‐(pyrrolidin‐1‐ylmethyl)aniline] | 107 | 57.8 ± 4.5 | 0.34 ± 0.06 | – |
| c1cc(-c2ccncc2)ccn1 [compound 235, 4,4'‐dipyridyl] | 54.8 | 63.7 ± 17.4 | – | ΔTm at 1000 µM (TbINO1; [5]): 0.2 ± 0.07 °C |
| CC(=O)c1cc(F)cc(F)c1O [compound 360, 1‐(3,5‐difluoro‐2‐hydroxyphenyl)ethan‐1‐one] | – | – | – | A549 Cells Alamar Blue (A549 cells): 149.7 percentage of controls; HeLa Cells Alamar Blue (HeLa cells; [3]): 103.5 ± 10 percentage of controls; Tb Ino1 Tm Shift [˚C] (TbINO1; [4]): 1.29 ± 0.05 °C |
| OCc1ccc(-c2ccccn2)s1 [compound 556, [5‐(2‐pyridinyl)‐2‐thienyl]methanol] | 93.9 | 70.2 ± 11 | 0.19 ± 0.08 | – |
| Cc1cc(C(N)=S)no1 [compound 140, 5‐methylisoxazole‐3‐carbothioamide] | 110 | 89.2 ± 6.5 | 0.2 ± 0.07 | – |
| O=C(O)c1ccc2ccccc2n1 [compound 369, 2‐quinolinecarboxylic acid] | 152 | – | – | viability at 500 µM (HeLa cells; read-out: HeLa Cells Alamar Blue, Supplementary Table 1, compound 0.5 mM, percentage of controls, mean ± SD (n=3) or SE (n=2)): 81.3 ± 14.1%; ΔTm at 1000 µM (TbINO1; [5]): 0.1 ± 0.67 °C |

| SMILES | viability at 500 µM (A549 cells) [%] | viability at 500 µM (HeLa cells; [1]) [%] | ΔTm at 1000 µM (TbINO1; [2]) [°C] | further results |
| --- | --- | --- | --- | --- |
| Nc1ccc(-c2ccco2)cc1 [compound 257, 4‐(2‐furyl)aniline] | 75.7 | 17 ± 12.7 | 0.83 ± 0.04 | CC50 (HeLa cells): 114 ± 8 µM |
| Nc1ccc2c(c1)OCCO2 [compound 193, 2,3‐dihydro‐1,4‐benzodioxin‐6‐amine] | 44.7 | 79.9 ± 13.6 | 0.4 ± 0.09 | – |
| OCc1ccc2nccn2c1 [compound 171, imidazo[1,2‐a]pyridin‐6‐ylmethanol] | 99.4 | 94.1 ± 15.6 | 0.84 ± 0.09 | – |
| Cn1c(CN)nc2ccccc21 [compound 281, (1‐methyl‐1H‐benzimidazol‐2‐yl)methylamine] | 53.8 | 47.6 ± 19.8 | 0.7 ± 0.04 | CC50 (HeLa cells): 659 ± 65 µM |
| Cc1csc(N)c1C(N)=O [compound 239, 2-amino-4-methylthiophene-3-carboxamide] | 69.8 | 95.8 ± 9.3 | – | viability at 500 µM (HeLa cells; [6]): 95.8 ± 9.3%; CC50 (HeLa cells): > 20000 µM; ΔTm at 1000 µM (TbINO1; read-out: TbIno1 Tm shift [°C]): 2.05 ± 0.05 °C |
| O=C(O)C1CCNCC1 [compound 90, piperidine‐4‐carboxylic acid] | 132 | 106 ± 2 | 0.5 ± 0.06 | – |
| OCc1nc2ccccc2[nH]1 [compound 169, 1H‐benzimidazol‐2‐ylmethanol] | 81.7 | 121 ± 15 | 0.04 ± 0.07 | – |
| NCc1ccc(C(F)(F)F)cc1 [compound 390, 4‐(trifluoromethyl)benzylamine] | 136 | 84.4 ± 6.8 | 0.38 ± 0.08 | – |
| Cc1occc(=O)c1O [compound 74, 3‐hydroxy‐2‐methyl‐4H‐pyran‐4‐one] | 105 | 107 ± 10.5 | 1.13 ± 0.08 | – |
| ON=C1CCCCCN1 [compound 87, azepan‐2‐one oxime] | 115 | 92.3 ± 17.4 | 0.52 ± 0.06 | – |
| CSc1ccc(C(=O)O)s1 [compound 389, 5‐(methylthio)thiophene‐2‐carboxylic acid] | – | – | – | A549 Cells Alamar Blue (A549 cells): 125.1 percentage of controls; HeLa Cells Alamar Blue (HeLa cells; [3]): 104.2 ± 16.4 percentage of controls; Tb Ino1 Tm Shift [˚C] (TbINO1; [4]): 0.43 ± 0.05 °C |
| COc1cccc(N)c1 [compound 61, 3‐methoxyaniline] | 69.2 | 48.7 ± 8.9 | – | ΔTm at 1000 µM (TbINO1; [5]): 0.19 ± 0.07 °C |
| Cc1occc1C(=O)O [compound 75, 2-methyl-3-furoic acid] | 110 | 63.3 ± 5.9 | – | viability at 500 µM (HeLa cells; [6]): 63.3 ± 5.9%; ΔTm at 1000 µM (TbINO1; read-out: TbIno1 Tm shift [°C]): 3.89 ± 0.07 °C |
| Nc1cccc(Oc2ccccn2)c1 [compound 506, 3‐(pyridin‐2‐yloxy)aniline] | 72.5 | 99.2 ± 16.2 | 0.23 ± 0.09 | – |
| Cn1ccc(C(F)(F)F)n1 [compound 181, 1‐methyl‐3‐(trifluoromethyl)‐1H‐pyrazole] | 58.4 | 115 ± 9.9 | 0.11 ± 0.08 | – |
| Nc1cccc(-c2cncnc2)c1 [compound 353, 3‐pyrimidin‐5‐ylaniline] | 56.4 | 78.7 ± 10 | 0.44 ± 0.06 | – |
| COC(=O)c1ccc(F)cc1Cl [compound 531, methyl 2‐chloro‐4‐fluorobenzoate] | 75.7 | 84 ± 11.8 | 0.25 ± 0.07 | – |
| CC(=O)c1nccnc1C [compound 117, 1‐(3‐methylpyrazin‐2‐yl)ethan‐1‐one] | 88.3 | 87.6 ± 11.3 | 0.4 ± 0.06 | – |
| NCc1ccc(N2CCCC2)cc1 [compound 414, [4‐(1‐pyrrolidinyl)phenyl]methanamine] | 96.8 | 68 ± 13.7 | 0.14 ± 0.07 | – |
| CC(=O)c1ccc2c(c1)OCCO2 [compound 430, 1‐(2,3‐dihydro‐1,4‐benzodioxin‐6‐yl)ethan‐1‐one] | – | – | – | A549 Cells Alamar Blue (A549 cells): 101.8 percentage of controls; HeLa Cells Alamar Blue (HeLa cells; [3]): 91.1 ± 12.8 percentage of controls; Tb Ino1 Tm Shift [˚C] (TbINO1; [4]): 0.13 ± 0.08 °C |
| CCOC(=O)c1csc(C)n1 [compound 356, ethyl 2‐methyl‐1,3‐thiazole‐4‐carboxylate] | 79.8 | 106 ± 5.3 | 0.28 ± 0.08 | – |
